Measurements published in US6737383B1, “Herbicidal oxadiazolidines” (priority 1999, dated 2004).

How the values were obtained:
giant foxtail = test: Test B pre/postemergence giant foxtail; assay type: in vivo, Setaria faberii
In short: (§1)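 Response is a visual 0-to-10 score relative to untreated plants, where 0 means no effect and 10 means complete control, taken twelve to sixteen days after application. Treatments went onto soil at planting and onto foliage of 1- to 4-leaf plants, using a surfactant-containing non-phytotoxic solvent.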

bamyardgrass = test: Test B flood test barnyardgrass; assay type: in vivo, Echinochloa crus-galli
In short: (§2)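 Read-out is a visual response score from 0 (no effect) to 10 (complete control), assigned by comparison with untreated controls. Treatment was applied at the 2-leaf stage, and plants stayed in the greenhouse for twelve to sixteen days before scoring.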

purple nutsedge = test: Test B pre/postemergence purple nutsedge; assay type: in vivo, Cyperus rotundus
In short: as §1

cocklebur = test: Test B pre/postemergence cocklebur; assay type: in vivo, Xanthium strumarium
In short: as §1

crabgrass = test: Test B pre/postemergence crabgrass; assay type: in vivo, Digitaria sanguinalis
In short: as §1

morningglory = test: Test B pre/postemergence morningglory; assay type: in vivo, Ipomoea hederacea
In short: as §1

blackgrass = test: Test B pre/postemergence blackgrass; assay type: in vivo, Alopecurus myosuroides
In short: as §1

rice = test: Test B flood test rice; assay type: in vivo, Oryza sativa; details: for Rice plant response rating: Postemergence section (flood test species)
In short: as §2

surinam grass = test: Test B pre/postemergence surinam grass; assay type: in vivo, Brachiaria decumbens
In short: as §1

soybean = test: Test B pre/postemergence soybean; assay type: in vivo, Glycine max
In short: as §1

rape = test: Test B pre/postemergence rape; assay type: in vivo, Brassica napus
In short: as §1

sugar beet = test: Test B pre/postemergence sugar beet; assay type: in vivo, Beta vulgaris
In short: as §1

smallflower flatsedge = test: Test B flood test smallflower flatsedge; assay type: in vivo, Cyperus difformis; details: for S. Flatsedge plant response rating: Postemergence section (flood test species)
In short: as §2

pigweed = test: Test B pre/postemergence pigweed; assay type: in vivo, Amaranthus retroflexus
In short: as §1

corn = test: Test B pre/postemergence corn; assay type: in vivo, Zea mays
In short: as §1

wild oat = test: Test B pre/postemergence wild oat; assay type: in vivo, Avena fatua
In short: as §1

duck salad = test: Test B flood test duck salad; assay type: in vivo, Heteranthera limosa
In short: as §2

wheat = test: Test B pre/postemergence wheat; assay type: in vivo, Triticum aestivum
In short: as §1

velvetleaf = test: Test B pre/postemergence velvetleaf; assay type: in vivo, Abutilon theophrasti
In short: as §1

[1] = Postemergence, Rate 250 g/ha, scale 0 to 10, 0 is no effect, 10 is complete control
[2] = Postemergence, Rate 500 g/ha, scale of 0 to 10 where 0 is no effect and 10 is complete control
[3] = Preemergence, Rate 62 g/ha, scale 0 to 10 (0 no effect, 10 complete control)
[4] = Preemergence, Rate 125 g/ha, scale of 0 to 10 where 0 is no effect and 10 is complete control
[5] = Preemergence, Rate 250 g/ha, scale 0 to 10, 0 is no effect, 10 is complete control
[6] = Preemergence, Rate 500 g/ha, scale 0 to 10, 0 is no effect, 10 is complete control
[7] = Rate 62 g/ha, Postemergence, scale of 0 to 10 where 0 is no effect and 10 is complete control
[8] = Rate 125 g/ha, Postemergence, scale 0 to 10, 0 is no effect, 10 is complete control
[9] = Postemergence section (flood test species), Rate 500 g/ha, scale of 0 to 10 where 0 is no effect and 10 is complete control
[10] = Rate 62 g/ha, Postemergence (flood test species), scale of 0 to 10 where 0 is no effect and 10 is complete control
[11] = Rate 125 g/ha, Postemergence section (flood test species), scale 0 to 10, 0 is no effect, 10 is complete control
[12] = flood test species, listed under Postemergence, Rate 250 g/ha, scale 0 to 10, 0 is no effect, 10 is complete control
[13] = Preemergence, Rate 250 g/ha, scale of 0 to 10 where 0 is no effect and 10 is complete control
[14] = Rate 500 g/ha, scale of 0 to 10 where 0 is no effect and 10 is complete control
[15] = Rate 125 g/ha, scale 0 to 10, 0 is no effect, 10 is complete control

In the case of `CC(C)N(C(=O)n1oc(=O)n(CCl)c1=O)c1ccccc1` [Compound 423], the “Plant response rating, Giant foxtail” value (giant foxtail; [1]) is reported as 0, the “Giant foxtail plant response rating” value (giant foxtail; [2]) is reported as 2 and the “Plant response rating, Giant foxtail” value (giant foxtail; [3]) is reported as 0. For the same compound, the “Plant response rating, Giant foxtail” value (giant foxtail; [4]) was 0, the “Giant foxtail plant response rating” value (giant foxtail; [5]) was 3 and the “Giant foxtail plant response rating” value (giant foxtail; [6]) was 4. The “Giant foxtail plant response rating” value (giant foxtail; [7]) was 0, the “Giant foxtail plant response rating” value (giant foxtail; [8]) was 0 and the “Barnyardgrass plant response rating” value (bamyardgrass; [9]) was 0. For the same compound, the “Barnyardgrass plant response rating” value (bamyardgrass; [10]) was 0, the “Barnyardgrass plant response rating” value (bamyardgrass; [11]) was 0 and the “Plant response rating, Barnyardgrass” value (bamyardgrass; [12]) was 0. For the same compound, the “Plant response rating, Nutsedge” value (purple nutsedge; [1]) was 0, the “Nutsedge plant response rating” value (purple nutsedge; [2]) was 0 and the “Plant response rating, Nutsedge” value (purple nutsedge; [3]) was 0. The “Plant response rating, Nutsedge” value (purple nutsedge; [4]) was 0, the “Nutsedge plant response rating” value (purple nutsedge; [5]) was 0 and the “Nutsedge plant response rating” value (purple nutsedge; [6]) was 0. The “Nutsedge plant response rating” value (purple nutsedge; [8]) was 0, the “Plant response rating, Cocklebur” value (cocklebur; [1]) was 0 and the “Cocklebur plant response rating” value (cocklebur; [2]) was 0. The “Plant response rating, Cocklebur” value (cocklebur; [3]) was 0, the “Plant response rating, Cocklebur” value (cocklebur; [4]) was 0 and the “Cocklebur plant response rating” value (cocklebur; [5]) was 0. The “Cocklebur plant response rating” value (cocklebur; [6]) was 0, the “Cocklebur plant response rating” value (cocklebur; [7]) was 0 and the “Cocklebur plant response rating” value (cocklebur; [8]) was 0. For the same compound, the “Plant response rating, Crabgrass” value (crabgrass; [1]) was 0, the “Crabgrass plant response rating” value (crabgrass; [2]) was 1 and the “Plant response rating, Crabgrass” value (crabgrass; [3]) was 0. For the same compound, the “Plant response rating, Crabgrass” value (crabgrass; [4]) was 0, the “Crabgrass plant response rating” value (crabgrass; [6]) was 2 and the “Crabgrass plant response rating” value (crabgrass; [7]) was 0. For the same compound, the “Crabgrass plant response rating” value (crabgrass; [8]) was 0, the “Morningglory plant response rating” value (morningglory; [2]) was 8 and the “Plant response rating, Morningglory” value (morningglory; [3]) was 0. The “Plant response rating, Morningglory” value (morningglory; [4]) was 0, the “Morningglory plant response rating” value (morningglory; [5]) was 0 and the “Morningglory plant response rating” value (morningglory; [6]) was 0. The “Morningglory plant response rating” value (morningglory; [8]) was 2, the “Plant response rating, Blackgrass” value (blackgrass; [1]) was 0 and the “Blackgrass plant response rating” value (blackgrass; [2]) was 2. The “Plant response rating, Blackgrass” value (blackgrass; [3]) was 0, the “Plant response rating, Blackgrass” value (blackgrass; [4]) was 0 and the “Blackgrass plant response rating” value (blackgrass; [13]) was 0. The “Blackgrass plant response rating” value (blackgrass; [6]) was 0, the “Blackgrass plant response rating” value (blackgrass; [7]) was 0 and the “Blackgrass plant response rating” value (blackgrass; [8]) was 0. For the same compound, the “Rice plant response rating” value (rice; [14]) was 0, the “Rice plant response rating” value (rice; [15]) was 0 and the “Plant response rating, Rice” value (rice; [12]) was 0. The “Plant response rating, B. signalgrass” value (surinam grass; [1]) was 0, the “B. signalgrass plant response rating” value (surinam grass; [2]) was 0 and the “Plant response rating, B. signalgrass” value (surinam grass; [3]) was 0. For the same compound, the “Plant response rating, B. signalgrass” value (surinam grass; [4]) was 0, the “B. signalgrass plant response rating” value (surinam grass; [13]) was 0 and the “B. signalgrass plant response rating” value (surinam grass; Preemergence, Rate 500 g/ha, scale of 0 to 10 where 0 is no effect and 10 is complete control) was 0. For the same compound, the “B. signalgrass plant response rating” value (surinam grass; [7]) was 0, the “B. signalgrass plant response rating” value (surinam grass; [8]) was 0 and the “Plant response rating, Soybean” value (soybean; [1]) was 2. For the same compound, the “Soybean plant response rating” value (soybean; [2]) was 2, the “Plant response rating, Soybean” value (soybean; [3]) was 0 and the “Plant response rating, Soybean” value (soybean; [4]) was 0. For the same compound, the “Soybean plant response rating” value (soybean; [5]) was 0, the “Soybean plant response rating” value (soybean; [6]) was 0 and the “Soybean plant response rating” value (soybean; [8]) was 2. The “Plant response rating, Rape” value (rape; [1]) was 0, the “Rape plant response rating” value (rape; [2]) was 0 and the “Plant response rating, Rape” value (rape; [3]) was 0. For the same compound, the “Plant response rating, Rape” value (rape; [4]) was 0, the “Rape plant response rating” value (rape; [5]) was 0 and the “Rape plant response rating” value (rape; [6]) was 0. For the same compound, the “Rape plant response rating” value (rape; [8]) was 0, the “Plant response rating, Sugarbeets” value (sugar beet; [1]) was 0 and the “Sugarbeets plant response rating” value (sugar beet; [2]) was 0. For the same compound, the “Plant response rating, Sugarbeets” value (sugar beet; [3]) was 0, the “Plant response rating, Sugarbeets” value (sugar beet; [4]) was 0 and the “Sugarbeets plant response rating” value (sugar beet; [5]) was 0. For the same compound, the “Sugarbeets plant response rating” value (sugar beet; [6]) was 0, the “Sugarbeets plant response rating” value (sugar beet; [8]) was 0 and the “S. Flatsedge plant response rating” value (smallflower flatsedge; [14]) was 0. For the same compound, the “S. Flatsedge plant response rating” value (smallflower flatsedge; [15]) was 0, the “Plant response rating, S. Flatsedge” value (smallflower flatsedge; [12]) was 0 and the “Plant response rating, Redroot pigweed” value (pigweed; [1]) was 0. For the same compound, the “Redroot pigweed plant response rating” value (pigweed; [2]) was 0, the “Plant response rating, Redroot pigweed” value (pigweed; [3]) was 0 and the “Plant response rating, Redroot pigweed” value (pigweed; [4]) was 0. The “Redroot pigweed plant response rating” value (pigweed; [5]) was 0, the “Redroot pigweed plant response rating” value (pigweed; [6]) was 0 and the “Redroot pigweed plant response rating” value (pigweed; [8]) was 0. For the same compound, the “Plant response rating, Corn” value (corn; [1]) was 0, the “Corn plant response rating” value (corn; [2]) was 0 and the “Plant response rating, Corn” value (corn; [3]) was 0. The “Plant response rating, Corn” value (corn; [4]) was 0, the “Corn plant response rating” value (corn; [5]) was 0 and the “Corn plant response rating” value (corn; [6]) was 0. For the same compound, the “Corn plant response rating” value (corn; [7]) was 0, the “Corn plant response rating” value (corn; [8]) was 0 and the “Wild oats plant response rating” value (wild oat; [2]) was 0. The “Plant response rating, Wild oats” value (wild oat; [3]) was 0, the “Plant response rating, Wild oats” value (wild oat; [4]) was 0 and the “Wild oats plant response rating” value (wild oat; [5]) was 0. For the same compound, the “Wild oats plant response rating” value (wild oat; [6]) was 0, the “Wild oats plant response rating” value (wild oat; [8]) was 0 and the “Ducksalad plant response rating” value (duck salad; [9]) was 0. The “Ducksalad plant response rating” value (duck salad; [10]) was 0, the “Ducksalad plant response rating” value (duck salad; [11]) was 0 and the “Plant response rating, Ducksalad” value (duck salad; [12]) was 0. The “Wheat plant response rating” value (wheat; [2]) was 0, the “Plant response rating, Wheat” value (wheat; [3]) was 0 and the “Plant response rating, Wheat” value (wheat; [4]) was 0. For the same compound, the “Wheat plant response rating” value (wheat; [5]) was 0, the “Wheat plant response rating” value (wheat; [6]) was 0 and the “Wheat plant response rating” value (wheat; [8]) was 0. The “Plant response rating, Velvetleaf” value (velvetleaf; [1]) was 0, the “Velvetleaf plant response rating” value (velvetleaf; [2]) was 0 and the “Plant response rating, Velvetleaf” value (velvetleaf; [3]) was 0. For the same compound, the “Plant response rating, Velvetleaf” value (velvetleaf; [4]) was 0, the “Velvetleaf plant response rating” value (velvetleaf; [5]) was 0 and the “Velvetleaf plant response rating” value (velvetleaf; [6]) was 0. For the same compound, the “Velvetleaf plant response rating” value (velvetleaf; [8]) was 0.
